Each block holds one compound with its values, some of them ahead of it.
Test system: 349418-098-R-PDC complex spheroid viability
Experiment: Anticancer human tumor 349418-098-R-PDC patient-derived lung adenocarcinoma cell line growth inhibition [RAS]
Settings: for IC50: curve of first compound; for viability, T/C: stronger effect = lower value
Method in brief: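 Agents were tested in combination matrices in half-log decrements from a top concentration at or near clinical Cmax (10 microM if undetermined). Targets were multi-cell spheroids of tumour lines plus HUVEC and MSC stromal cells.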

[1] = second compound 0.000949 µM, first compound 0.0316 µM
[2] = second compound 0.000949 µM, first compound 0.1 µM
[3] = second compound 0.000949 µM, first compound 0.316 µM
[4] = second compound 0.000949 µM, first compound 1 µM
[5] = second compound 0.003 µM, first compound 0.0316 µM
[6] = second compound 0.003 µM, first compound 0.1 µM
[7] = second compound 0.003 µM, first compound 0.316 µM
[8] = second compound 0.003 µM, first compound 1 µM
[9] = second compound 0.00949 µM, first compound 0.0316 µM
[10] = second compound 0.00949 µM, first compound 0.1 µM
[11] = second compound 0.00949 µM, first compound 0.316 µM
[12] = second compound 0.00949 µM, first compound 1 µM
[13] = second compound 0.03 µM, first compound 0.0316 µM
[14] = second compound 0.03 µM, first compound 0.1 µM
[15] = second compound 0.03 µM, first compound 0.316 µM
[16] = second compound 0.03 µM, first compound 1 µM
[17] = second compound 0.0949 µM, first compound 0.0316 µM
[18] = second compound 0.0949 µM, first compound 0.1 µM
[19] = second compound 0.0949 µM, first compound 0.316 µM
[20] = second compound 0.0949 µM, first compound 1 µM
[21] = second compound 0.3 µM, first compound 0.0316 µM
[22] = second compound 0.3 µM, first compound 0.1 µM
[23] = second compound 0.3 µM, first compound 0.316 µM
[24] = second compound 0.3 µM, first compound 1 µM
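Note: spheroids exposed to compound for seven days before viability readout.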

- IC50 (second compound 0.000949 µM): 36.4 nM
- IC50 (second compound 0.003 µM): 99.4 nM
- IC50 (second compound 0.00949 µM): 72.4 nM
- IC50 (second compound 0.03 µM): 278 nM
- IC50 (second compound 0.0949 µM): < 31.6 nM
- IC50 (second compound 0.3 µM): 39.9 nM
SMILES: CC(Nc1ccc2c(c1)OCCn1cc(N3C(=O)OCC3C(F)F)nc1-2)C(N)=O (centres undefined) + CCn1c(-c2cccnc2C(C)OC)c2c3cc(ccc31)N1CCOC(CC(NC(=O)C(C(C)C)N(C)C(=O)C3(F)CCN(C(=O)C#CC(C)(C)N(C)C)CC3)C(=O)N3CCCC(N3)C(=O)OCC(C)(C)C2)C1
- viability, T/C [1]: 72.9%
- viability, T/C [2]: 36.7%
- viability, T/C [3]: 17.7%
- viability, T/C [4]: 17.2%
- viability, T/C (second compound 0.000949 µM, first compound 3.16 µM): 101%
- viability, T/C (second compound 0.000949 µM, first compound 10 µM): 16.2%
- viability, T/C [5]: 80.3%
- viability, T/C [6]: 56.2%
- viability, T/C [7]: 30.2%
- viability, T/C [8]: 19.6%
- viability, T/C (second compound 0.003 µM, first compound 3.16 µM): 99.2%
- viability, T/C (second compound 0.003 µM, first compound 10 µM): 12.9%
- viability, T/C [9]: 73.4%
- viability, T/C [10]: 43.6%
- viability, T/C [11]: 25.2%
- viability, T/C [12]: 14.9%
- viability, T/C (second compound 0.00949 µM, first compound 3.16 µM): 94.2%
- viability, T/C (second compound 0.00949 µM, first compound 10 µM): 11.8%
- viability, T/C [13]: 67.6%
- viability, T/C [14]: 43%
- viability, T/C [15]: 32.2%
- viability, T/C [16]: 24.3%
- viability, T/C (second compound 0.03 µM, first compound 3.16 µM): 112%
- viability, T/C (second compound 0.03 µM, first compound 10 µM): 14.7%
- viability, T/C [17]: 55.9%
- viability, T/C [18]: 44.5%
- viability, T/C [19]: 25.9%
- viability, T/C [20]: 17.9%
- viability, T/C (second compound 0.0949 µM, first compound 3.16 µM): 98.1%
- viability, T/C (second compound 0.0949 µM, first compound 10 µM): 10.4%
- viability, T/C [21]: 53.7%
- viability, T/C [22]: 37.8%
- viability, T/C [23]: 21.5%
- viability, T/C [24]: 19%
- viability, T/C (second compound 0.3 µM, first compound 3.16 µM): 65%
- viability, T/C (second compound 0.3 µM, first compound 10 µM): 14.5%

- IC50 (second compound 0.000949 µM): < 3.16 nM
- IC50 (second compound 0.003 µM): < 3.16 nM
- IC50 (second compound 0.00949 µM): < 3.16 nM
- IC50 (second compound 0.03 µM): < 3.16 nM
- IC50 (second compound 0.0949 µM): < 3.16 nM
- IC50 (second compound 0.3 µM): < 3.16 nM
SMILES: O=C(c1ccc(F)c(F)c1Nc1ccc(I)cc1F)N1CC(O)([C@@H]2CCCCN2)C1 + CCn1c(-c2cccnc2C(C)OC)c2c3cc(ccc31)N1CCOC(CC(NC(=O)C(C(C)C)N(C)C(=O)C3(F)CCN(C(=O)C#CC(C)(C)N(C)C)CC3)C(=O)N3CCCC(N3)C(=O)OCC(C)(C)C2)C1
- viability, T/C (second compound 0.000949 µM, first compound 0.00316 µM): 26.5%
- viability, T/C (second compound 0.000949 µM, first compound 0.01 µM): 22.8%
- viability, T/C [1]: 15.6%
- viability, T/C [2]: 12.7%
- viability, T/C [3]: 7.76%
- viability, T/C [4]: 5.98%
- viability, T/C (second compound 0.003 µM, first compound 0.00316 µM): 29.4%
- viability, T/C (second compound 0.003 µM, first compound 0.01 µM): 24.1%
- viability, T/C [5]: 17.2%
- viability, T/C [6]: 11.3%
- viability, T/C [7]: 6.93%
- viability, T/C [8]: 5.43%
- viability, T/C (second compound 0.00949 µM, first compound 0.00316 µM): 28.6%
- viability, T/C (second compound 0.00949 µM, first compound 0.01 µM): 17.8%
- viability, T/C [9]: 14.9%
- viability, T/C [10]: 10.6%
- viability, T/C [11]: 7.5%
- viability, T/C [12]: 6.07%
- viability, T/C (second compound 0.03 µM, first compound 0.00316 µM): 30.2%
- viability, T/C (second compound 0.03 µM, first compound 0.01 µM): 14.9%
- viability, T/C [13]: 15.8%
- viability, T/C [14]: 12%
- viability, T/C [15]: 7.23%
- viability, T/C [16]: 5.04%
- viability, T/C (second compound 0.0949 µM, first compound 0.00316 µM): 27.1%
- viability, T/C (second compound 0.0949 µM, first compound 0.01 µM): 17.5%
- viability, T/C [17]: 13.2%
- viability, T/C [18]: 10.3%
- viability, T/C [19]: 6.84%
- viability, T/C [20]: 5.79%
- viability, T/C (second compound 0.3 µM, first compound 0.00316 µM): 30.1%
- viability, T/C (second compound 0.3 µM, first compound 0.01 µM): 15.8%
- viability, T/C [21]: 12.9%
- viability, T/C [22]: 11.1%
- viability, T/C [23]: 7.31%
- viability, T/C [24]: 5.8%

From PubChem BioAssay AID2060904 (Molecular Pharmacology Branch, DTP, NCI, 2025)
